In ChEMBL document CHEMBL1147847, “Evaluation of electronic, lipophilic and membrane affinity effects on antiproliferative activity of 5-substituted-2-(2,4-dihydroxyphenyl)-1,3,4-thiadiazoles against various human cancer cells” (2007):

Assays:
Assay type in all cases: functional
[1] = Antiproliferative activity against human HCV29T cells by SRB method
A549 = test: Antiproliferative activity against human A549 cells by SRB method
T47D = test: Antiproliferative activity against human T47D cells by SRB method
[2] = Antiproliferative activity against human SW707 cells by SRB method

## OCCCc1nnc(-c2ccc(O)cc2O)s1
[1]
  log(1/ID50): -2.232

## Oc1ccc(-c2nnc(-c3ccccc3)s2)c(O)c1
[1]
  log(1/ID50): -2.276

## Oc1ccc(-c2nnc(-c3ccc(O)cc3O)s2)c(O)c1
[1]
  log(1/ID50): -2.045

## Oc1ccc(-c2nnc(-c3ccc(-c4ccccc4)cc3)s2)c(O)c1
A549
  log(1/ID50): -1.28
[1]
  log(1/ID50): -1.693
T47D
  log(1/ID50): -1.407
[2]
  log(1/ID50): -1.161

## Oc1ccc(-c2nnc(Cc3ccccc3)s2)c(O)c1
[1]
  log(1/ID50): -2.09

## Oc1ccc(-c2nnc(Cc3cccc4ccccc34)s2)c(O)c1
A549
  log(1/ID50): -1.865
[1]
  log(1/ID50): -1.923
T47D
  log(1/ID50): -1.629
[2]
  log(1/ID50): -1.926

## Oc1ccc(-c2nnc(-c3ccncc3)s2)c(O)c1
[1]
  log(1/ID50): <-2.567

## Oc1ccc(-c2nnc(-c3cc4ccccc4s3)s2)c(O)c1
[1]
  log(1/ID50): -1.848

## Oc1ccc(-c2nnc(COc3ccccc3Cl)s2)c(O)c1
A549
  log(1/ID50): -2.108
[1]
  log(1/ID50): -2.061
T47D
  log(1/ID50): -1.494
[2]
  log(1/ID50): -2.037

## Oc1ccc(-c2nncs2)c(O)c1
[1]
  log(1/ID50): -2.25

## CCOc1ccc(-c2nnc(-c3ccc(O)cc3O)s2)cc1
[1]
  log(1/ID50): -2.016

## Cc1cccc(-c2nnc(-c3ccc(O)cc3O)s2)c1O
A549
  log(1/ID50): -1.292
[1]
  log(1/ID50): -1.745
T47D
  log(1/ID50): -1.273
[2]
  log(1/ID50): -1.746

## CCCCCCCCCCCCCCCc1nnc(-c2ccc(O)cc2O)s1
[1]
  log(1/ID50): <-2.393

## Oc1ccc(-c2nnc(COc3ccc(F)cc3)s2)c(O)c1
[1]
  log(1/ID50): -1.999

## Oc1ccc(-c2nnc(COc3ccc(Cl)cc3Cl)s2)c(O)c1
[1]
  log(1/ID50): -2.41

## O=[N+]([O-])c1ccc(OCc2nnc(-c3ccc(O)cc3O)s2)cc1
[1]
  log(1/ID50): -2.429

## Oc1ccc(-c2nnc(C(O)c3ccccc3)s2)c(O)c1 (stereo not drawn)
A549
  log(1/ID50): -2.139
[1]
  log(1/ID50): -1.857
T47D
  log(1/ID50): -2.148
[2]
  log(1/ID50): -2.027

## Oc1ccc(-c2nnc(CCCCc3nnc(-c4ccc(O)cc4O)s3)s2)c(O)c1
A549
  log(1/ID50): -1.42
[1]
  log(1/ID50): -1.421
T47D
  log(1/ID50): <-2.354
[2]
  log(1/ID50): -1.025

## Oc1cc(O)cc(-c2nnc(-c3ccc(O)cc3O)s2)c1
[1]
  log(1/ID50): -2.182

## Oc1ccc(-c2nnc(-c3ccccn3)s2)c(O)c1
[1]
  log(1/ID50): -2.152

## CC(C)(C)c1ccc(-c2nnc(-c3ccc(O)cc3O)s2)cc1
A549
  log(1/ID50): -1.593
[1]
  log(1/ID50): -1.057
T47D
  log(1/ID50): -1.088
[2]
  log(1/ID50): -1.139

## Oc1ccc(-c2nnc(-c3cccc4ccccc34)s2)c(O)c1
A549
  log(1/ID50): -1.828
[1]
  log(1/ID50): -1.871
T47D
  log(1/ID50): -1.18
[2]
  log(1/ID50): -1.766

## Oc1ccc(-c2nnc(COc3cccc(F)c3)s2)c(O)c1
[1]
  log(1/ID50): -2.093

## Oc1ccc(-c2nnc(-c3ccccc3Br)s2)c(O)c1
A549
  log(1/ID50): -1.912
[1]
  log(1/ID50): -1.919
T47D
  log(1/ID50): -1.444
[2]
  log(1/ID50): -1.89

## Cc1cc(Cl)ccc1OCc1nnc(-c2ccc(O)cc2O)s1
A549
  log(1/ID50): -1.964
[1]
  log(1/ID50): -1.816
T47D
  log(1/ID50): -1.402
[2]
  log(1/ID50): -2.117

## CCOc1cccc(-c2nnc(-c3ccc(O)cc3O)s2)c1
[1]
  log(1/ID50): -2.04

## Oc1ccc(-c2nnc(-c3ccccc3O)s2)c(O)c1
[1]
  log(1/ID50): -2.083

## COc1cccc(COc2nnc(-c3ccc(O)cc3O)s2)c1
A549
  log(1/ID50): -1.379
[1]
  log(1/ID50): -0.522
T47D
  log(1/ID50): -0.958
[2]
  log(1/ID50): -1.18

## Oc1ccc(-c2nnc(-c3ccco3)s2)c(O)c1
A549
  log(1/ID50): <-2.585
[1]
  log(1/ID50): -2.178
T47D
  log(1/ID50): -2.196
[2]
  log(1/ID50): <-2.585

## COc1cc(-c2nnc(-c3ccc(O)cc3O)s2)cc(OC)c1O
[1]
  log(1/ID50): -2.027

## CCOc1nnc(-c2ccc(O)cc2O)s1
[1]
  log(1/ID50): -2.305

## COc1nnc(-c2ccc(O)cc2O)s1
[1]
  log(1/ID50): -2.343
